From US20080318943A1, “Compounds and Uses Thereof - 848” (ASTRAZENECA AB, priority 2007, published 2008) come the findings set out here.

The term Ki denotes the dissociation constant of the complex between target and ligand, obtained from inhibition or displacement. High values mean weaker binding, low ones tighter binding.

Structures are written as SMILES.

One assay concerns the target T1, GABAA receptor α1β2γ2 (Homo sapiens, UniProt P14867+P18507).
T1 construct: expressed in transfected cells; host or cells: Xenopus laevis oocytes injected with cRNA
The assay is described as follows: Two-electrode voltage-clamp potentiation of GABA EC10 current in Xenopus oocytes, GABAA1. Type of assay: cell-based. The settings on record: percentage potentiation of GABA EC10 current divided by that of diazepam. Put shortly:
(§1)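 Human GABAA receptors expressed in Xenopus oocytes by cRNA injection (α:β:γ molar ratio ~1:1:10 for α1β2γ2, 1:1:1 for α2β3γ2), recorded 2-10 days later by two-electrode voltage clamp at −60 mV in ND-96, pH 7.5. Modulator preapplied 30 s before GABA at per-oocyte EC10. Peak-current percent potentiation over GABA alone, normalised to diazepam.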
(Two-electrode voltage clamp holds a large cell at a set potential and records current.)

Assay [1] deals with T2, GABAA2 receptors (α2, β3, γ2 receptor subunits transfected into Sf9 cells) (Homo sapiens, UniProt P18507+P47869).
T2 construct: host or cells: Sf9 cells (membranes)
T2 sequence (P47869 29-451): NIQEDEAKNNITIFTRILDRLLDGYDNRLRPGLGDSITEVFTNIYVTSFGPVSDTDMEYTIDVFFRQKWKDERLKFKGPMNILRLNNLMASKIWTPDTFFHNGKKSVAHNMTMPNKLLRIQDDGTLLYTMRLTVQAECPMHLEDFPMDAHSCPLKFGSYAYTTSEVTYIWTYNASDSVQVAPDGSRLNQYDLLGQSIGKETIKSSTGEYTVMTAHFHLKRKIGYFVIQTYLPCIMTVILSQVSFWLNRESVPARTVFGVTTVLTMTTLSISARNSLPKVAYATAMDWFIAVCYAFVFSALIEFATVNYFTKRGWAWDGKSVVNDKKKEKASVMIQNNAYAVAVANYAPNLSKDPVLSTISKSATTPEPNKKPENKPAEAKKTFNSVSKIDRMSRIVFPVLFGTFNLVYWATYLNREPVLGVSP
T2 sequence (P28472 26-473 partner): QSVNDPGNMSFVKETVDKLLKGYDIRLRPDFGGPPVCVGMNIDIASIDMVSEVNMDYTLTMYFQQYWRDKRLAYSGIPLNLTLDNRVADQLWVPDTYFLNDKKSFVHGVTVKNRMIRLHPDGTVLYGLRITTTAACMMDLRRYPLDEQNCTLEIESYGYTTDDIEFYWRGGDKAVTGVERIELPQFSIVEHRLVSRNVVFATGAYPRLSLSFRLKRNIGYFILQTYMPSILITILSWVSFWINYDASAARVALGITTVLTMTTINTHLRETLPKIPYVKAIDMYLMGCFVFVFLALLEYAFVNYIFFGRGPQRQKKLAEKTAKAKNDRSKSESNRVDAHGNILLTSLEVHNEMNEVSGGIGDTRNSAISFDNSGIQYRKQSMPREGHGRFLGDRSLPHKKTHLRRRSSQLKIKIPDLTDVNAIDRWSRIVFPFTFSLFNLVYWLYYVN
T2 sequence (P18507 40-475): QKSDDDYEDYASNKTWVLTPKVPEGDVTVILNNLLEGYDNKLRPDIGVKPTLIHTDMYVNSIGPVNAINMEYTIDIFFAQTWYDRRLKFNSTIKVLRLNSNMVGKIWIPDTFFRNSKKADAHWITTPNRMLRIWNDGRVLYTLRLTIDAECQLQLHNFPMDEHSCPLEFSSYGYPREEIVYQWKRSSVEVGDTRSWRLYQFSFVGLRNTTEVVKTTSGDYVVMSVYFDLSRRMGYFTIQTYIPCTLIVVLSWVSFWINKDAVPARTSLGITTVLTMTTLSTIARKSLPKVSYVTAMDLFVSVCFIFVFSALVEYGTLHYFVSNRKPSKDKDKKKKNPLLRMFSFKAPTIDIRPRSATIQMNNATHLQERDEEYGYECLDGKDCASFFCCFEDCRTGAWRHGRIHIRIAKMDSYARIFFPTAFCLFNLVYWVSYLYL
The assay is described as follows: GABAA2 Binding Method ([3H]-Flunitrazepam displacement). The following applies: [3H]-Flunitrazepam ~2 nM, α2β3γ2 Sf9 membranes, 1 hr at 4° C. Summed up:
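Membranes from Sf9 cells expressing α2β3γ2 GABAA receptors incubated with ~2 nM (final) [3H]-flunitrazepam and test compound 1 h at 4 °C, then filtered on GF/B plates with cold-buffer washes. Flumazenil-defined controls; percent of control, IC50 and Ki calculated.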

In the next assay the target is T3, GABAA receptor α2β3γ2 (Homo sapiens, UniProt P18507+P47869).
T3 construct: expressed in transfected cells; host or cells: Xenopus laevis oocytes injected with cRNA
T3 sequence (P47869 29-451): as the sequence (P47869 29-451) above
T3 sequence (P28472 26-473 partner): as the sequence (P28472 26-473 partner) above
T3 sequence (P18507 40-475): as the sequence (P18507 40-475) above
Briefly: Two-electrode voltage-clamp potentiation of GABA EC10 current in Xenopus oocytes, GABAA2. Type of assay: cell-based. The following applies: percentage potentiation of GABA EC10 current divided by that of diazepam. Summed up:
as §1

T1 sequence (P14867 28-456): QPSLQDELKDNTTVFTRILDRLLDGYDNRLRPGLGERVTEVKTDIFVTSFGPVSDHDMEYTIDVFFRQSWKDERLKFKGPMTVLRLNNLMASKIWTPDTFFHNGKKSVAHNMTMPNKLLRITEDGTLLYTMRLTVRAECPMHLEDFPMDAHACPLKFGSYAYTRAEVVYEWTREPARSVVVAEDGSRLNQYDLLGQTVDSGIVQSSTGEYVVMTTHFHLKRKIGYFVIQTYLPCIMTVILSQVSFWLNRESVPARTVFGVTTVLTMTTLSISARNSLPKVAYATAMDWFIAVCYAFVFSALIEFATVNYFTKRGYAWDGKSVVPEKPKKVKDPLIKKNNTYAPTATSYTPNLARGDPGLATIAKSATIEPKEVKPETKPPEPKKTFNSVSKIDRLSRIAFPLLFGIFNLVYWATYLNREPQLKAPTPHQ
T1 sequence (P47870 25-512 partner limits assumed): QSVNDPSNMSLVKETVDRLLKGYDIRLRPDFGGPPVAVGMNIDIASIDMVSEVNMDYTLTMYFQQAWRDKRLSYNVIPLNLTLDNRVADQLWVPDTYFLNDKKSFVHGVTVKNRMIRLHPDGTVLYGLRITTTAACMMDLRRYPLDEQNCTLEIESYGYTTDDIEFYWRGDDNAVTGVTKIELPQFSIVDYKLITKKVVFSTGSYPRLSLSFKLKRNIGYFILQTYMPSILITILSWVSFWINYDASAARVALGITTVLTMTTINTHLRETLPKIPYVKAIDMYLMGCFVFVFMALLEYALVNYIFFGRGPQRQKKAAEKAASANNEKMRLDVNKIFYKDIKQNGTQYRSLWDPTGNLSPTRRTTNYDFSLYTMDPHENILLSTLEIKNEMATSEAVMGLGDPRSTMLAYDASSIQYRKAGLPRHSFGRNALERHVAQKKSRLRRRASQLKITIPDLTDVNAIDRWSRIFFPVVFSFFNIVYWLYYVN
T1 sequence (P18507 40-475): as the sequence (P18507 40-475) above

`CCCN1Cc2nc3c(-c4ccc(C)nc4F)cccc3c(N)c2C1=O` [9-amino-5-(2-fluoro-6-methylpyridin-3-yl)-2-propyl-2,3-dihydro-1H-pyrrolo[3,4-b]quinolin-1-one]: on GABAA receptor α1β2γ2, the “Relative Potentiation for GABAA1” value was 0.22. Moreover, in assay [1], the inhibition constant (Ki) stood at 0.0197 µM. For the same compound, the “Relative Potentiation for GABAA2” value on GABAA receptor α2β3γ2 came out at 0.37.

For `COc1ccc(CN2Cc3nc4c(-c5cccnc5F)cccc4c(N)c3C2=O)cc1` [9-amino-5-(2-fluoropyridin-3-yl)-2-(4-methoxybenzyl)-2,3-dihydro-1H-pyrrolo[3,4-b]quinolin-1-one], the “Relative Potentiation for GABAA1” value on GABAA receptor α1β2γ2 is 0.18. The affinity in assay [1], expressed as Ki, was 0.00682 µM. Moreover, the “Relative Potentiation for GABAA2” value on GABAA receptor α2β3γ2 was 0.32.

On to `CCCN1Cc2nc3c(-c4cc(C)ccc4OC)cccc3c(N)c2C1=O` [9-amino-5-(2-methoxy-5-methylphenyl)-2-propyl-2,3-dihydro-1H-pyrrolo[3,4-b]quinolin-1-one], for which the “Relative Potentiation for GABAA1” value on GABAA receptor α1β2γ2 is reported as 0.17. In assay [1], this compound came in with a Ki of 0.0472 µM. Also, at GABAA receptor α2β3γ2, the “Relative Potentiation for GABAA2” value came to 0.37.

In the case of `CCCN1Cc2nc3c(-c4cc(C)cnc4OC)cccc3c(N)c2C1=O` [9-amino-5-(2-methoxy-5-methylpyridin-3-yl)-2-propyl-2,3-dihydro-1H-pyrrolo[3,4-b]quinolin-1-one], the “Relative Potentiation for GABAA1” value at GABAA receptor α1β2γ2 is given as 0.58. In assay [1], this compound came in with a Ki of 0.00359 µM. In addition, the “Relative Potentiation for GABAA2” value at GABAA receptor α2β3γ2 was 0.

As for `CCCN1Cc2nc3c(-c4cccnc4OC)cccc3c(N)c2C1=O` [9-amino-5-(2-methoxypyridin-3-yl)-2-propyl-2,3-dihydro-1H-pyrrolo[3,4-b]quinolin-1-one], at GABAA receptor α1β2γ2, the “Relative Potentiation for GABAA1” value amounted to 0.36. Besides, the affinity in assay [1] corresponds to a Ki of 0.0421 µM. Also, the “Relative Potentiation for GABAA2” value on GABAA receptor α2β3γ2 is given as 0.58.

Turning to `CCCN1Cc2nc3c(-c4cccnc4C)cccc3c(N)c2C1=O` [9-amino-5-(2-methylpyridin-3-yl)-2-propyl-2,3-dihydro-1H-pyrrolo[3,4-b]quinolin-1-one], the “Relative Potentiation for GABAA1” value on GABAA receptor α1β2γ2 turned out to be 0.22. Also, the affinity in assay [1] corresponds to a Ki of 0.0114 µM. The “Relative Potentiation for GABAA2” value on GABAA receptor α2β3γ2 was determined as 0.26.

Turning to `CCCN1Cc2nc3c(-c4cccc(OC)c4)cccc3c(N)c2C1=O` [9-amino-5-(3-methoxyphenyl)-2-propyl-2,3-dihydro-1H-pyrrolo[3,4-b]quinolin-1-one], on GABAA receptor α1β2γ2, the “Relative Potentiation for GABAA1” value turned out to be 0.31. Further, the affinity in assay [1], expressed as Ki, was 0.0629 µM. The “Relative Potentiation for GABAA2” value on GABAA receptor α2β3γ2 is given as 0.3.

`CCCN1Cc2nc3c(-c4ccc(F)cc4OC)cccc3c(N)c2C1=O` [9-amino-5-(4-fluoro-2-methoxyphenyl)-2-propyl-2,3-dihydro-1H-pyrrolo[3,4-b]quinolin-1-one]: the “Relative Potentiation for GABAA1” value on GABAA receptor α1β2γ2 stood at 0.2. Moreover, affinity in assay [1] was put at a Ki of 0.0608 µM. Moreover, the “Relative Potentiation for GABAA2” value at GABAA receptor α2β3γ2 is given as 0.2.

Take `CCCN1Cc2nc3c(-c4cnccc4OC)cccc3c(N)c2C1=O` [9-amino-5-(4-methoxypyridin-3-yl)-2-propyl-2,3-dihydro-1H-pyrrolo[3,4-b]quinolin-1-one]: the “Relative Potentiation for GABAA1” value at GABAA receptor α1β2γ2 was found to be 0.39. Further, in assay [1], the inhibitory constant (Ki) turned out to be 0.0392 µM. Also, the “Relative Potentiation for GABAA2” value on GABAA receptor α2β3γ2 worked out at 0.62.

Take `CCCN1Cc2nc3c(-c4cnccc4C)cccc3c(N)c2C1=O` [9-amino-5-(4-methylpyridin-3-yl)-2-propyl-2,3-dihydro-1H-pyrrolo[3,4-b]quinolin-1-one]: the “Relative Potentiation for GABAA1” value on GABAA receptor α1β2γ2 is listed as 0.36. Moreover, affinity in assay [1] was put at a Ki of 0.0557 µM. For the same compound, on GABAA receptor α2β3γ2, the “Relative Potentiation for GABAA2” value stood at 0.34.

`CCCN1Cc2nc3c(-c4cc(Cl)ccc4OC)cccc3c(N)c2C1=O` [9-amino-5-(5-chloro-2-methoxyphenyl)-2-propyl-2,3-dihydro-1H-pyrrolo[3,4-b]quinolin-1-one]: the “Relative Potentiation for GABAA1” value on GABAA receptor α1β2γ2 worked out at 0.36. This compound also showed an inhibitory constant (Ki) in assay [1] of 0.0396 µM. Also, the “Relative Potentiation for GABAA2” value at GABAA receptor α2β3γ2 is listed as 0.54.

As for `CCCN1Cc2nc3c(-c4cc(F)ccc4OC)cccc3c(N)c2C1=O` [9-amino-5-(5-fluoro-2-methoxyphenyl)-2-propyl-2,3-dihydro-1H-pyrrolo[3,4-b]quinolin-1-one], on GABAA receptor α1β2γ2, the “Relative Potentiation for GABAA1” value came to 0.19. Also, the affinity in assay [1], expressed as Ki, was 0.0803 µM. At GABAA receptor α2β3γ2, the “Relative Potentiation for GABAA2” value came out at 0.25.

In the case of `CCCN1Cc2nc3c(-c4ccc(F)nc4C)cccc3c(N)c2C1=O` [9-amino-5-(6-fluoro-2-methylpyridin-3-yl)-2-propyl-2,3-dihydro-1H-pyrrolo[3,4-b]quinolin-1-one], the “Relative Potentiation for GABAA1” value at GABAA receptor α1β2γ2 is reported as 1.7. For the same compound, in assay [1], the Ki is 0.0223 µM. Also, at GABAA receptor α2β3γ2, the “Relative Potentiation for GABAA2” value came to 0.48.

Consider `CCCN1Cc2nc3c(-c4cnc(F)c(C)c4)cccc3c(N)c2C1=O` [9-amino-5-(6-fluoro-5-methylpyridin-3-yl)-2-propyl-2,3-dihydro-1H-pyrrolo[3,4-b]quinolin-1-one], for which, on GABAA receptor α1β2γ2, the “Relative Potentiation for GABAA1” value is 0.31. Moreover, the Ki in assay [1] worked out at 0.0303 µM. For the same compound, on GABAA receptor α2β3γ2, the “Relative Potentiation for GABAA2” value is reported as 0.32.

As to `COc1ccc(CN2Cc3nc4c(-c5ccc(-c6ccc(Cl)nc6)nc5)cccc4c(N)c3C2=O)cc1OC` [9-amino-5-(6′-chloro-2,3′-bipyridin-5-yl)-2-(3,4-dimethoxybenzyl)-2,3-dihydro-1H-pyrrolo[3,4-b]quinolin-1-one], the “Relative Potentiation for GABAA1” value at GABAA receptor α1β2γ2 is −0.048. The same compound yielded an inhibitory constant (Ki) in assay [1] of 0.0204 µM. The “Relative Potentiation for GABAA2” value at GABAA receptor α2β3γ2 is on record as 0.023.

As to `COc1ccc(CN2Cc3nc4c(-c5c(F)cccc5OC)cccc4c(N)c3C2=O)cc1` [Example 1, 9-Amino-5-(2-fluoro-6-methoxyphenyl)-2-(4-methoxybenzyl)-2,3-dihydropyrrolo[3,4-b]quinolin-1-one], the “Relative Potentiation for GABAA1” value on GABAA receptor α1β2γ2 was −0.034. The affinity in assay [1], expressed as Ki, was 0.0098 µM. The “Relative Potentiation for GABAA2” value at GABAA receptor α2β3γ2 is recorded as 0.2.

Consider `COc1ccc(CN2Cc3nc4c(-c5cc(F)ccc5F)cccc4c(N)c3C2=O)cc1` [Example 2], for which the “Relative Potentiation for GABAA1” value at GABAA receptor α1β2γ2 amounted to 0.12. The affinity in assay [1], expressed as Ki, was 0.0443 µM. In addition, on GABAA receptor α2β3γ2, the “Relative Potentiation for GABAA2” value stood at 0.13.

Consider `COc1ccc(CN2Cc3nc4c(-c5cccnc5OC)cccc4c(N)c3C2=O)cc1` [Example 3, 9-Amino-2-(4-methoxybenzyl)-5-(2-methoxypyridin-3-yl)-2,3-dihydropyrrolo[3,4-b]quinolin-1-one], for which, at GABAA receptor α1β2γ2, the “Relative Potentiation for GABAA1” value stood at 0.12. The compound also came in with a Ki in assay [1] of 0.022 µM. For the same compound, the “Relative Potentiation for GABAA2” value on GABAA receptor α2β3γ2 stood at 0.68.

As for `COc1ccc(OC)c(CN2Cc3nc4c(-c5cccnc5OC)cccc4c(N)c3C2=O)c1` [Example 4, 9-Amino-2-(2,5-dimethoxybenzyl)-5-(2-methoxypyridin-3-yl)-2,3-dihydropyrrolo[3,4-b]quinolin-1-one], the “Relative Potentiation for GABAA1” value at GABAA receptor α1β2γ2 was determined as 0.013. For the same compound, the Ki in assay [1] amounted to 0.0312 µM. Further, on GABAA receptor α2β3γ2, the “Relative Potentiation for GABAA2” value stood at 0.18.

Regarding `CCCN1Cc2nc3c(-c4c(F)cccc4OC)cccc3c(N)c2C1=O` [Example 5, 9-Amino-5-(2-fluoro-6-methoxyphenyl)-2-propyl-2,3-dihydropyrrolo[3,4-b]quinolin-1-one], the “Relative Potentiation for GABAA1” value at GABAA receptor α1β2γ2 stood at 0.11. Moreover, in assay [1], the affinity, expressed as Ki, was 0.00503 µM. Also, the “Relative Potentiation for GABAA2” value on GABAA receptor α2β3γ2 is 0.3.

In the case of `CCCN1Cc2nc3c(-c4cccc(C)c4C)cccc3c(N)c2C1=O` [Example 6, 9-Amino-5-(2,3-dimethylphenyl)-2-propyl-2,3-dihydropyrrolo[3,4-b]quinolin-1-one], the “Relative Potentiation for GABAA1” value on GABAA receptor α1β2γ2 came to 0.13. In assay [1], this compound registered a Ki of 0.0173 µM. At GABAA receptor α2β3γ2, the “Relative Potentiation for GABAA2” value is listed as 0.22.

Consider `CCCN1Cc2nc3c(-c4cc(C)cc(C)c4)cccc3c(N)c2C1=O` [Example 7, 9-Amino-5-(3,5-dimethylphenyl)-2-propyl-2,3-dihydropyrrolo[3,4-b]quinolin-1-one], for which the “Relative Potentiation for GABAA1” value at GABAA receptor α1β2γ2 is 0.16. Besides, the affinity in assay [1] corresponds to a Ki of 0.0943 µM. The “Relative Potentiation for GABAA2” value on GABAA receptor α2β3γ2 stood at 0.27.

Regarding `COc1ccc(CN2Cc3nc4c(-c5ccc(Cl)nc5)cccc4c(N)c3C2=O)cc1OC` [Example 8, 9-Amino-5-(6-chloropyridin-3-yl)-2-(3,4-dimethoxybenzyl)-2,3-dihydropyrrolo[3,4-b]quinolin-1-one], the “Relative Potentiation for GABAA1” value at GABAA receptor α1β2γ2 came to 0.013. The same compound gave an inhibitory constant (Ki) in assay [1] of 0.0459 µM. In addition, the “Relative Potentiation for GABAA2” value on GABAA receptor α2β3γ2 is 0.07.

Turning to `CCCN1Cc2nc3c(-c4ccc(OC)nc4OC)cccc3c(N)c2C1=O` [Example 9, 9-Amino-5-(2,6-dimethoxypyridin-3-yl)-2-propyl-2,3-dihydropyrrolo[3,4-b]quinolin-1-one], on GABAA receptor α1β2γ2, the “Relative Potentiation for GABAA1” value worked out at 0.068. In assay [1], the Ki came to 0.0281 µM. In addition, the “Relative Potentiation for GABAA2” value on GABAA receptor α2β3γ2 is 0.31.

On to `CCCN1Cc2nc3c(-c4ccc(C)nc4)cccc3c(N)c2C1=O` [Example 10, 9-Amino-5-(6-methylpyridin-3-yl)-2-propyl-2,3-dihydropyrrolo[3,4-b]quinolin-1-one], for which the “Relative Potentiation for GABAA1” value on GABAA receptor α1β2γ2 came out at 0.092. Moreover, affinity in assay [1] was put at a Ki of 0.0922 µM. The “Relative Potentiation for GABAA2” value at GABAA receptor α2β3γ2 is 0.19.

In the case of `COc1ccc(OC)c(-c2cccc3c(N)c4c(nc23)CN(Cc2ccc(OC)c(OC)c2)C4=O)c1` [Example 11, 9-Amino-2-(3,4-dimethoxybenzyl)-5-(2,5-dimethoxyphenyl)-2,3-dihydropyrrolo[3,4-b]quinolin-1-one], on GABAA receptor α1β2γ2, the “Relative Potentiation for GABAA1” value amounted to 0.15. In assay [1], this compound displayed a Ki of 0.011 µM. The “Relative Potentiation for GABAA2” value at GABAA receptor α2β3γ2 amounted to 0.19.
